Test results from ChEMBL document CHEMBL4602719, “Discovery of Potent, Selective, and Orally Bioavailable Inhibitors of USP7 with In Vivo Antitumor Activity” (J Med Chem, 2020).

target: T1, Ubiquitin carboxyl-terminal hydrolase 7 (Homo sapiens, UniProt Q93009); assay: Inhibition of recombinant full length USP7 (unknown origin) using ubiquintin-rhodamine as substrate preincubated for 30 mins followed by substrate addition measured after 1 hr by fluorescence-based Envision plate reader assay; conditions: not given
T1 sequence (Q93009 whole entry): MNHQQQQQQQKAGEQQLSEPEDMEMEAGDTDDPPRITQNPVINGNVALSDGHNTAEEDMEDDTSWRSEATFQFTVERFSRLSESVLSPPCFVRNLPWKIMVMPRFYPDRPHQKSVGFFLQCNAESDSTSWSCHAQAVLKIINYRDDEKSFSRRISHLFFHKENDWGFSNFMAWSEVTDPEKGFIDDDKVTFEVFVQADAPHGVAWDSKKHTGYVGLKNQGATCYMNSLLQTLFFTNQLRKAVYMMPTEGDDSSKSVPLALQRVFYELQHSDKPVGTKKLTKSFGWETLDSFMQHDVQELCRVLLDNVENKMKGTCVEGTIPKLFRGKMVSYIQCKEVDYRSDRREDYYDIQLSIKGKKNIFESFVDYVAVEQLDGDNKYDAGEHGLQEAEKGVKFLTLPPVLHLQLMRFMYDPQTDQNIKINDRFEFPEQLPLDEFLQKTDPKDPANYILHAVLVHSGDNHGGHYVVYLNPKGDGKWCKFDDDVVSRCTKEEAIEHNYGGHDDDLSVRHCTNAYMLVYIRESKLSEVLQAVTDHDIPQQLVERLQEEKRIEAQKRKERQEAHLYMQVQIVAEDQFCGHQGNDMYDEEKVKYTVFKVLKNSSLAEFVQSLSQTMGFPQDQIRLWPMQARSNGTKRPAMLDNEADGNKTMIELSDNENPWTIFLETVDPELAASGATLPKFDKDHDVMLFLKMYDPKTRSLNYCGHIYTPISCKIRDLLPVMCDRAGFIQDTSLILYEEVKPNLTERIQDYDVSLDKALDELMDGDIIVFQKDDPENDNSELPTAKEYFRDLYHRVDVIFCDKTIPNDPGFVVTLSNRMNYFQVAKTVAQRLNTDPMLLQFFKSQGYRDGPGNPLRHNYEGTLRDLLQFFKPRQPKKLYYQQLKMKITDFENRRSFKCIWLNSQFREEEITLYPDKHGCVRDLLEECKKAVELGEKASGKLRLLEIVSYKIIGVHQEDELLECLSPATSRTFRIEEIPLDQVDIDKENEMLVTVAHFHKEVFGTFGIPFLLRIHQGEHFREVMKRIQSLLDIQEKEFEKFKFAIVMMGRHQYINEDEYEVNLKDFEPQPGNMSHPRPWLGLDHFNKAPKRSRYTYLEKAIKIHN

IC50 [nM]	Compound
1.2	Cc1cc(Cl)cc(-c2ccnc3cc(CN4C(=O)CCC4=O)sc23)c1O[C@@H]1CNC[C@@H]1F
32	Cc1cc(Cl)cc(-c2ccnc3cc(CN4C(=O)CCC4=O)sc23)c1CN1CCNCC1
8	Cc1cc(Cl)cc(-c2ccnc3cc(CN4C(=O)CCC4=O)sc23)c1OC1CCNCC1
2.1	Cc1cc(Cl)cc(-c2ccnc3cc(CN4C(=O)CCC4=O)sc23)c1O[C@@H]1CCNC[C@@H]1C

The next lines start with the molecule.

Compound	IC50 [nM]
O=C([C@H]1Cc2cc(Cl)cc(-c3ccnc4ccsc34)c2O1)N1CCNCC1	90
O=C([C@H]1Cc2cc(Cl)cc(-c3ccnc4[nH]ccc34)c2O1)N1CCNCC1	450
Cc1cc(Cl)cc(-c2ccnc3cc(CN4C(=O)CCC4=O)sc23)c1OCC1(F)CNC1	1.5
Cc1cc(Cl)cc(-c2ccnc3cc(CN4C(=O)C5CC5C4=O)sc23)c1C[C@H]1OCCN[C@@H]1C (mixture of isomers)	1.5

test system: MM1.S; assay: Cytotoxicity against human MM1S cells expressing wild type p53 assessed as reduction in cell viability measured after 5 days by CellTiter-Glo assay; type: functional; conditions: 120 h

Compound	CC50 [nM]
Cc1cc(Cl)cc(-c2ccnc3cc(CN4C(=O)C5CC5C4=O)sc23)c1C[C@H]1OCCN[C@@H]1C (mixture of isomers)	310

test system: not listed separately; assay: AUC in Sprague-Dawley rat at 2 mg/kg, po; type: ADME, organism-based; conditions: in vivo

AUC [ng·h/mL]	Compound
130	Cc1cc(Cl)cc(-c2ccnc3cc(CN4C(=O)CCC4=O)sc23)c1O[C@@H]1CNC[C@@H]1F
44	Cc1cc(Cl)cc(-c2ccnc3cc(CN4C(=O)CCC4=O)sc23)c1OC1CCNCC1
860	Cc1cc(Cl)cc(-c2ccnc3cc(CN4C(=O)CCC4=O)sc23)c1O[C@@H]1CCNC[C@@H]1C

target: T1, Ubiquitin carboxyl-terminal hydrolase 7; assay: Inhibition of USP7 in human RKO cells transfected with p53 luciferase reporter vector assessed as increase in p53-dependent luciferase activity measured after 18 hrs by BrightGlo luciferase assay; type: cell-based; conditions: not given

EC50 [nM]	Compound
560	Cc1cc(Cl)cc(-c2ccnc3cc(CN4C(=O)CCC4=O)sc23)c1O[C@@H]1CNC[C@@H]1F
1200	Cc1cc(Cl)cc(-c2ccnc3cc(CN4C(=O)CCC4=O)sc23)c1CN1CCNCC1
400	Cc1cc(Cl)cc(-c2ccnc3cc(CN4C(=O)CCC4=O)sc23)c1OC1CCNCC1
150	Cc1cc(Cl)cc(-c2ccnc3cc(CN4C(=O)CCC4=O)sc23)c1O[C@@H]1CCNC[C@@H]1C

The remaining lines, values behind:

Compound	EC50 [nM]
Cc1cc(Cl)cc(-c2ccnc3cc(CN4C(=O)CCC4=O)sc23)c1OCC1(F)CNC1	320
Cc1cc(Cl)cc(-c2ccnc3cc(CN4C(=O)C5CC5C4=O)sc23)c1C[C@H]1OCCN[C@@H]1C (mixture of isomers)	210

target: T2, Ubiquitin carboxyl-terminal hydrolase 1 (Homo sapiens, UniProt O94782); assay: Inhibition of His6-tagged human USP1 expressed in insect Sf21 cells coexpressing untagged UAF1 assessed as cleavage of Ubiquitin-Rhodamine110-glycine to Ubiquitin and Rhodamine110-glycine using Ubiquitin-Rhodamine110-glycine as substrate by fluorescence based analysis; conditions: not given
T2 sequence (O94782 whole entry): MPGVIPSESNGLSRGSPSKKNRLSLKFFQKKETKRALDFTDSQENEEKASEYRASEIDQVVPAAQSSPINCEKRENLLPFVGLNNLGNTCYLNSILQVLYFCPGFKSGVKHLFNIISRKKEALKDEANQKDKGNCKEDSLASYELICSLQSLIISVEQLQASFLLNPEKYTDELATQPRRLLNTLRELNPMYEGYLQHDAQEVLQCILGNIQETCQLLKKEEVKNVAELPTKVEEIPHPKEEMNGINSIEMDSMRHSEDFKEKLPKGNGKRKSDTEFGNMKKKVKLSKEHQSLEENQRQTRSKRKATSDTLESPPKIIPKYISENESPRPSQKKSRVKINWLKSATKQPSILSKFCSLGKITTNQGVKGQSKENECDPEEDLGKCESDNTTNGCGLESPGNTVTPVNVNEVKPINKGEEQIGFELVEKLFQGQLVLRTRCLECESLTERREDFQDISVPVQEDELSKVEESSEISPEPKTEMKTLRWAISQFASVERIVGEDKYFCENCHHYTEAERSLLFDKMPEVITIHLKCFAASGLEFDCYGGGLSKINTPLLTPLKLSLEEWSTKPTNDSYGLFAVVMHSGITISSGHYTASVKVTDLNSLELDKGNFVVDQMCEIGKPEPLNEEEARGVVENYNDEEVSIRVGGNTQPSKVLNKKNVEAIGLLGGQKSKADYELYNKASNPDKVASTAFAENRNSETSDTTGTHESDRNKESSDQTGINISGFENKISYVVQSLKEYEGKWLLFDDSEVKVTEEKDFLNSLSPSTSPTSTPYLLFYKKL

IC50 [nM]	Compound
> 40000	O=C([C@H]1Cc2cc(Cl)cc(-c3ccnc4ccsc34)c2O1)N1CCNCC1
> 80000	O=C([C@H]1Cc2cc(Cl)cc(-c3ccnc4[nH]ccc34)c2O1)N1CCNCC1

target: T3, Ubiquitin carboxyl-terminal hydrolase 47 (Homo sapiens, UniProt Q96K76); assay: Inhibition of USP47 (unknown origin) by biochemical assay; conditions: not given
T3 sequence (Q96K76 whole entry): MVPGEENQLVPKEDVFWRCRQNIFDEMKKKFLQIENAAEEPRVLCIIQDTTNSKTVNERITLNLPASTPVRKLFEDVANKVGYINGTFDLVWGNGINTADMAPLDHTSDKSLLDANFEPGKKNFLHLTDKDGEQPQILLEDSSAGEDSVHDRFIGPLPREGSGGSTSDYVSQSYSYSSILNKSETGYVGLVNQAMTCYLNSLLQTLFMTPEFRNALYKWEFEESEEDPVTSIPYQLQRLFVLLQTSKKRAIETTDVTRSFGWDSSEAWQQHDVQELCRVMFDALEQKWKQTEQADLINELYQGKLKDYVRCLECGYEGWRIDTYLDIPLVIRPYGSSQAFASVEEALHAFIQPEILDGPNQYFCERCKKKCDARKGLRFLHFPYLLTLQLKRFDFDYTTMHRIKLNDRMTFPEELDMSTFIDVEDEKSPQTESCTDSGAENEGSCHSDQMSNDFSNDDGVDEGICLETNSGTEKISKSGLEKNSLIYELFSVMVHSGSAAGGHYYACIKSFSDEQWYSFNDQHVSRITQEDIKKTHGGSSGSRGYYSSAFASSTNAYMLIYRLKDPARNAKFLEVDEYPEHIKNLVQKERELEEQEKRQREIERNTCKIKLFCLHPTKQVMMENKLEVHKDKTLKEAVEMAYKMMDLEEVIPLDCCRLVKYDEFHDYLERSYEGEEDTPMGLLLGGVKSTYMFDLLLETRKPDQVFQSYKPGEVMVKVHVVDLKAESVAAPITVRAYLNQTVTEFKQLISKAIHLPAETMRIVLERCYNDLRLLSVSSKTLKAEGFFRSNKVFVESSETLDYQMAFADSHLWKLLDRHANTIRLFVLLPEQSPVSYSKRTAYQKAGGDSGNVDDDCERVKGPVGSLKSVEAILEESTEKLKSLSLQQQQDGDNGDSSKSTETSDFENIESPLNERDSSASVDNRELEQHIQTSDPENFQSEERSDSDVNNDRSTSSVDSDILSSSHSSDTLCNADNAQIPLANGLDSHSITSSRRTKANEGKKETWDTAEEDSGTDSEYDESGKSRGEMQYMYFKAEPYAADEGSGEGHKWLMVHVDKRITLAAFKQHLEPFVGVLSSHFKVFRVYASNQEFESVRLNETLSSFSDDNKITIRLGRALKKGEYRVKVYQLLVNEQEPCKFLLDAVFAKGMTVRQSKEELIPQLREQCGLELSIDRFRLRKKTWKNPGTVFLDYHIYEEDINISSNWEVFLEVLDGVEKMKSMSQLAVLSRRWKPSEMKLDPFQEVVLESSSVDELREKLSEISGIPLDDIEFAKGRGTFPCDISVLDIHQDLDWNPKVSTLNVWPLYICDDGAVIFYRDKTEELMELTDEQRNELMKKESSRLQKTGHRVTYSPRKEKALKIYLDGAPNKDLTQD

IC50 [nM]	Compound
> 40000	O=C([C@H]1Cc2cc(Cl)cc(-c3ccnc4ccsc34)c2O1)N1CCNCC1
> 80000	O=C([C@H]1Cc2cc(Cl)cc(-c3ccnc4[nH]ccc34)c2O1)N1CCNCC1

test system: not listed separately; assay: Clearance in Sprague-Dawley rat at 0.5 mg/kg, iv; type: ADME, organism-based; conditions: in vivo

clearance [mL/min/kg]	Compound
35	Cc1cc(Cl)cc(-c2ccnc3cc(CN4C(=O)CCC4=O)sc23)c1O[C@@H]1CNC[C@@H]1F
5.5	Cc1cc(Cl)cc(-c2ccnc3cc(CN4C(=O)CCC4=O)sc23)c1OC1CCNCC1
1.17	Cc1cc(Cl)cc(-c2ccnc3cc(CN4C(=O)CCC4=O)sc23)c1O[C@@H]1CCNC[C@@H]1C
